Laboratory results taken from patent US20160089464A1, “MALODOR REDUCTION COMPOSITIONS” (The Procter & Gamble Company, priority 2014, published 2016).

Assay: Comment Code material properties: vapor pressure, ClogP, probability of ingredient color instability, odor detection threshold, melamine formaldehyde PMC headspace response ratio and leakage, liquid dish neat product liquid-air partition coefficient
Format: physicochemical
Settings: cell strings several class symbols together; each letter is one property class of L1

| Comment Code | Structure (SMILES) |
| --- | --- |
| DFHJ | CC1COC(C)(c2ccc3c(c2)C(C)(C)CCC3(C)C)O1 (stereo not shown) [Material 2] |
| BDEFHJK | C=C1C2CCC(C)(C)C1CCC(OC)C2 (stereo not shown) [Material 7] |
| ADEFHJK | CCOC1CCC(C(C)(C)CC)CC1 (stereo not shown) [Material 12] |
| ADEFHJKL | CC=CCOCC/C=C\CC [Material 19] |
| ADHIJKL | COC(C)(C)C1CC=C(C)CC1 (stereo not shown) [Material 20] |
| DEFHJK | CC1C(C)(C)C2=C(C3OC(C)(C)OC3CC2)C1(C)C (stereo not shown) [Material 23] |
| ADHIJKL | C=CC(C)(CCC=C(C)C)OC (stereo not shown) [Material 24] |
| ACHK | COc1ccccc1C=CC=O [Material 26] |
| ADGIJKL | CC(C)CCCC(C)CC=O (stereo not shown) [Material 27] |
| DEFHIJK | CC1=CC(C)C2C(CCC(C)(C)C2O)C1 (stereo not shown) [Material 39] |
| CEFHJ | CC1=CCC(C=CC(C)(C)C(C)O)C1(C)C (stereo not shown) [Material 53] |
| ADEFHJKL | CC=CC(=O)OCCCCCC [Material 55] |
| BCEFHJK | CC(C)=CCC/C(C)=C\COC=O [Material 59] |
| ADGIJKL | C=CC(C)=CCC1OC1(C)C (stereo not shown) [Material 73] |
| BCEFGIJK | CCC(C)(O)/C=C/C=C(C)C (stereo not shown) [Material 81] |
| BCEFHIKL | CC/C=C\CCOC(=O)C1CC1 [Material 84] |
| BCHJK | CCC(=O)OC(C)c1ccccc1 (stereo not shown) [Material 96] |
| BCEFGIKL | CC1CCC2(CCCC(=O)O2)C1 (stereo not shown) [Material 107] |
| BCHJKL | COC(=O)C=C(C)CCC=C(C)C [Material 111] |
| CFGK | CCOc1cc(COC)ccc1O [Material 115] |
| ACEFHIKL | COC(=O)C=C1CCCC1 [Material 116] |
| ACGIJK | COC(C)(C)CCCC(C)C=O (stereo not shown) [Material 125] |
| BDEFHIJK | CC(C)C1CCC(CO)CC1 (stereo not shown) [Material 133] |

| Comment Code | Structure (SMILES) |
| --- | --- |
| CEFHJK | CC1OC(C)C2Cc3ccccc3C2O1 (stereo not shown) [Material 141] |
| ACFHJK | C=CC(C)(CCC=C(C)C)OC=O (stereo not shown) [Material 150] |
| BDEFHJK | C=CC(C)(CCC=C(C)C)OC(=O)CCC (stereo not shown) [Material 151] |
| BDHJK | C=CC(C)(CCC=C(C)C)OC(C)=O (stereo not shown) [Material 154] |
| BCEFGIJK | C=CC(C)(O)CCC=C(C)C (stereo not shown) [Material 157] |
| ACEFGKL | CC/C=C\CCOC(=O)OC [Material 163] |
| BCEFHIKL | Cc1ccnc2ccccc12 [Material 166] |
| ACGIJKL | C=C(C)[C@@H]1CC=C(C)C(=O)C1 [Material 169] |
| CEFHJK | C=C1[C@H]2CC[C@H](CO)[C@@]23CC[C@H](C3)C1(C)C [Material 183] |
| DEFHJK | CC1(CO)CC1CC1CC2CC2(C)C1(C)C (stereo not shown) [Material 185] |
| ACGIKL | CC(C)C=CCO [Material 194] |
| ACEFGIJKL | CCC(C)C(=O)OC(C)C (stereo not shown) [Material 198] |
| CFGJ | COc1c2ccoc2c(OC)c2oc(=O)ccc12 [Material 199] |
| ADEFGIJKL | C=C(C)CC(C)OC(=O)C(C)C (stereo not shown) [Material 201] |
| BDEFHJKL | CC(=O)OCCCCCCC(C)C [Material 204] |
| BDEFGIKL | CC(C)CCCCCCO [Material 205] |
| DEFGJK | CC1CCCCCCCCCCCCC(=O)C1 (stereo not shown) [Material 206] |
| DFHJ | CC=Cc1ccc(OCc2ccccc2)c(OC)c1 [Material 212] |
| CFHJK | CC=Cc1ccc(OC(C)=O)c(OC)c1 [Material 213] |
| CEFHIK | CC=Cc1ccc(O)c(OC)c1 [Material 214] |
| DHJK | CC(=O)[C@@]1(C)CC2=C(CCCC2(C)C)C[C@@H]1C [Material 215] |
| BDEFHIJK | CC(C)C(=O)OC1CC2CCC1(C)C2(C)C (stereo not shown) [Material 229] |

| Structure (SMILES) | Comment Code |
| --- | --- |
| COC(=O)Cc1ccccc1 [Material 97] | ACEFHIKL |
